The results in this text go back to patent US10501449B2 (priority 2018, dated 2019).

For this assay, the target named is hROMK (human Kir1.1) (Homo sapiens (Human), UniProt P48048). The assay is described as follows: cell-based. As to conditions: CHO T-Rex hROMK stable cell line; thallium flux; 10-point concentration response curve; read-out: Human ROMK Th Flux IC50.
Sequence of hROMK (human Kir1.1) (P48048 whole entry): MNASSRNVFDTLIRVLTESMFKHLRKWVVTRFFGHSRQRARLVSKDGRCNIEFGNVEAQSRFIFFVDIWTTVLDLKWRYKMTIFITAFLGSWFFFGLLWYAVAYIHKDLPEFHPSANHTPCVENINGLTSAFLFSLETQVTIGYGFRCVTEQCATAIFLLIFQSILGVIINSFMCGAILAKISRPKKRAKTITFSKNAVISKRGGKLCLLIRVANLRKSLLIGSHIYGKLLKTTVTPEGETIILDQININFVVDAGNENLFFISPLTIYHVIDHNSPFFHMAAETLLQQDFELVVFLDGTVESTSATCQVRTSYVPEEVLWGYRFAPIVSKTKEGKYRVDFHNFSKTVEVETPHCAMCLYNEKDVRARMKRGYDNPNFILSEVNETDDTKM
Method: Solutions and reagents: Thallium flux assay was performed using FluxOR kit (F10017, Life Technologies). Loading buffer, assay buffer and stimulus buffer were prepared using kit components. HBSS (Hank's balanced salt solution, Cat#14025-092) was purchased separately from Life Technologies.
To prepare 10 ml of loading buffer: 10 μl of FluxOR dye (reconstituted in DMSO) was first added to 100 μl of powerload concentrate and this mix along with 100 μl of Probenicid (100×) was then added to 9.79 ml of HBSS. Assay buffer (10 ml) was prepared by addition of 2 ml of FluxOR chloride free buffer (5×), 100 μl of Probenicid (100×), and 0.2 ml of Ouabain (13.77 mM) to 7.7 ml of deionized water. Stimulus buffer was composed of 15 mM Tl2SO4, 0.75 mM K2SO4 in FluxOR chloride free buffer (diluted to 1× using deionized water). The final concentration of Tl2SO4 and K2SO4 in the assay plate was 3 mM and 0.15 mM, respectively.
Plating and induction of cells: The CHO T-Rex hROMK (human Kir1.1) stable cell line was maintained in Ham's F12 media supplemented with 10% FBS, 1% Penicillin-Streptomycin, 500 μg/ml Zeocin and 10 μg/ml Blasticidin at 37° C. in a 5% CO2 incubator. One day before the experiment, the cells were dissociated by incubation with Versene solution (15040-066, Life Technologies) for 10 minutes at 37° C. followed by addition of growth media. The cell suspension was centrifuged at 1200 rpm for 5 min. After discarding the supernatant, the cells were resuspended in fresh growth media and cell concentration was determined using a hemocytometer. Next, 0.5 μg/ml of Doxycycline was added to the cell suspension to induce hROMK channel expression and 50 μl (10,000 cells/well) of cell suspension was added to each well of a poly-D lysine coated 384 well black, optically clear bottom plate (6007718, Perkin Elmer). The assay plate was kept at 37° C. in a 5% CO2 incubator.
Assay protocol: On the day of experiment, media was removed and loading buffer was added (30 μl/well) to the assay plate. The cells were incubated in the loading buffer for 30 minutes at 37° C. The loading buffer was then replaced by assay buffer (30 μl/well) followed by addition of test compounds or controls. The cells were incubated with compounds for 30 minutes and the plate was then mounted on FlexStation (Molecular Devices) for fluorescence read out with excitation and emission wavelengths at 488 and 525 nm, respectively. Each well was read for 90 sec at 2 sec interval and the stimulus buffer was added after 20 seconds of baseline recording. The final DMSO concentration was either 0.5 or 1% in the assay plate. Positive and negative controls were defined by addition of DMSO or 3 μM of a standard ROMK inhibitor, respectively, to the wells instead of a test compound.
A 10-point concentration response curve was used to estimate the IC50 value of test compounds.
A word on the IC50: it is the concentration at which inhibition is half-maximal. In the case of `Cc1cncc(-n2cc(CN3CCO[C@H](c4ccc5c(c4C)COC5=O)C3)cn2)n1` [Example 41-I, (R)-4-methyl-5-(4-((1-(6-methylpyrazin-2-yl)-1H-pyrazol-4-yl)methyl)morpholin-2-yl) isobenzofuran-1(3H)-one], the half-maximal inhibitory concentration (IC50) amounted to 980 nM.
`Cc1c([C@@H]2CN(Cc3cnn(-c4cncc(C#N)c4)c3)CCO2)ccc2c1COC2=O` [Example 42-I, (R)-5-(4-((2-(4-methyl-1-oxo-1,3-dihydroiso-benzofuran-5-yl)morpholino)methyl)-1H-pyrazol-1-yl)nicotinonitrile]: the IC50 is 490 nM.
Consider `Cc1c([C@@H]2CN(Cc3cnn(-c4cccc(C#N)c4)c3)CCO2)ccc2c1COC2=O` [Example 43-I, (R)-3-(4-((2-(4-methyl-1-oxo-1,3-dihydroiso-benzofuran-5-yl)morpho-lino)methyl)-1H-pyrazol-1-yl)benzonitrile], for which the IC50 turned out to be 110 nM.
In the case of `Cc1c([C@@H]2CN(Cc3cnn(-c4ccncc4)c3)CCO2)ccc2c1COC2=O` [Example 44-I, (R)-4-methyl-5-(4-((1-(pyridin-4-yl)-1H-pyrazol-4-yl)methyl)morpholin-2-yl)isobenzo-furan-1(3H)-one], the 50% inhibitory concentration (IC50) is 200 nM.
Regarding `Cc1c([C@@H]2CN(Cc3cnn(-c4ccc(S(C)(=O)=O)cc4)c3)CCO2)ccc2c1COC2=O` [Example 45-I, (R)-4-methyl-5-(4-((1-(4-(methylsulfonyl)phenyl)-1H-pyrazol-4-yl)methyl)morpholin-2-yl)isobenzofuran-1(3H)-one], the IC50 turned out to be 370 nM.
Turning to `Cc1c([C@@H]2CN(Cc3cnn(-c4ccn5nccc5n4)c3)CCO2)ccc2c1COC2=O` [Example 50-I, (R)-4-methyl-5-(4-((1-(pyrazolo[1,5-a]pyrimidin-5-yl)-1H-pyrazol-4-yl)methyl)morpholin-2-yl)isobenzofuran-1(3H)-one], the 50% inhibitory concentration (IC50) was determined as 670 nM.
In the case of `Cc1cc(-n2ccc(CN3CCO[C@H](c4ccc5c(c4C)COC5=O)C3)n2)ncc1C#N` [Example 53-I, (R)-4-methyl-6-(3-((2-(4-methyl-1-oxo-1,3-dihydroisobenzofuran-5-yl)morpholino)methyl)-1H-pyrazol-1-yl) nicotinonitrile], the concentration for half-maximal inhibition (IC50) came to 370 nM.
`COc1c(CN2CCN[C@H](c3ccc4c(c3C)COC4=O)C2)cnn1-c1ccc2oc(=O)n(C)c2c1` [Example 54-I, (R)-5-(5-methoxy-4-((3-(4-methyl-1-oxo-1,3-dihydroisobenzofuran-5-yl)piperazin-1-yl)methyl)-1H-pyrazol-1-yl)-3-methylbenzo[d] oxazol-2(3H)-one]: the half-maximal inhibitory concentration (IC50) amounted to 110 nM.
Under `Cc1c([C@@H]2CN(Cc3cnn(-c4cc(F)c5oc(=O)n(C)c5c4)c3)CCN2)ccc2c1COC2=O` [Example 55-I, (R)-7-fluoro-3-methyl-5-(4-((3-(4-methyl-1-oxo-1,3-dihydroisobenzo-furan-5-yl)piperazin-1-yl)methyl)-1H-pyra-zol-1-yl)benzo[d]oxazol-2(3H)-one] stands 86 nM; under `COc1cc(-n2cc(CN3CCN[C@H](c4ccc5c(c4C)COC5=O)C3)cn2)cc2c1oc(=O)n2C` [Example 56-I, (R)-7-methoxy-3-methyl-5-(4-((3-(4-methyl-1-oxo-1,3-dihydroiso-benzofuran-5-yl)piperazin-1-yl)methyl)-1H-pyrazol-1-yl)benzo[d] oxazol-2(3H)-one], 150 nM; under `Cc1c([C@@H]2CN(Cc3cnn(-c4ccc5oc(=O)n(C)c5c4)c3)CCN2)ccc2c1COC2=O` [Example 58-I, (R)-3-methyl-5-(4-((3-(4-methyl-1-oxo-1,3-dihydroisobenzofuran-5-yl)piperazin-1-yl)methyl)-1H-pyrazol-1-yl) benzo[d]oxazol-2(3H)-one], 60 nM.
Under `Cc1c([C@@H]2CN(Cc3nnc(-c4ccc(C#N)cn4)o3)CCN2)ccc2c1COC2=O` [Example 62-I, (R)-6-(5-((3-(4-methyl-1-oxo-1,3-dihydroiso-benzofuran-5-yl)piper-azin-1-yl)methyl)-1,3,4-oxadiazol-2-yl) nicotinonitrile] stands 170 nM; under `CC(=O)N1CCN(Cc2cnn(-c3cc(C)c(C#N)cn3)c2)C[C@H]1c1ccc2c(c1C)COC2=O` [Example 68-I, (R)-6-(4-((4-acetyl-3-(4-methyl-1-oxo-1,3-di-hydroisobenzofuran-5-yl)piperazin-1-yl)methyl)-1H-pyrazol-1-yl)-4-methylnicotinonitrile], 1700 nM.
As for `Cc1cc(-n2cc(CN3CCN(S(C)(=O)=O)[C@H](c4ccc5c(c4C)COC5=O)C3)cn2)ncc1C#N` [Example 69-I, (R)-4-methyl-6-(4-((3-(4-methyl-1-oxo-1,3-dihydroisobenzofuran-5-yl)-4-(methylsulfonyl)piperazin-1-yl)methyl)-1H-pyrazol-1-yl) nicotinonitrile], the half-maximal inhibitory concentration (IC50) is 900 nM.
As to `Cc1c([C@@H]2CN(Cc3cnn(-c4ccc5oc(=O)n(C)c5c4)c3)CC(=O)N2)ccc2c1COC2=O` [Example 71-I, (R)-3-methyl-5-(4-((3-(4-methyl-1-oxo-1,3-dihydroisobenzofuran-5-yl)-5-oxopiperazin-1-yl)methyl)-1H-pyrazol-1-yl)benzo[d]oxazol-2(3H)-one], the half-inhibitory concentration (IC50) came to 800 nM.
Regarding `Cc1c([C@@H]2CN(Cc3cn(-c4ccc5oc(=O)n(C)c5c4)nn3)CC(=O)N2)ccc2c1COC2=O` [Example 72-I, (R)-3-methyl-5-(4-((3-(4-methyl-1-oxo-1,3-dihydroisobenzofuran-5-yl)-5-oxopiperazin-1-yl)methyl)-1H-1,2,3-triazol-1-yl)benzo[d] oxazol-2(3H)-one], the IC50 worked out at 550 nM.
Take `Cc1c([C@@H]2CN(Cc3ccc(-n4cnc(C#N)n4)nc3)CC(=O)N2)ccc2c1COC2=O` [Example 73-I, (R)-1-(5-((3-(4-methyl-1-oxo-1,3-dihydroiso-benzofuran-5-yl)-5-oxo-piperazin-1-yl)methyl)pyridin-2-yl)-1H-1,2,4-triazole-3-carbonitrile]: the IC50 worked out at 150 nM.
For `COc1cc(-c2ccc(CN3CC(=O)N[C@H](c4ccc5c(c4C)COC5=O)C3)cn2)ncc1C#N` [Example 74-I, (R)-4-methoxy-5′-((3-(4-methyl-1-oxo-1,3-di-hydroisobenzofuran-5-yl)-5-oxopiperazin-1-yl)methyl)-[2,2′-bi-pyridine]-5-carbonitrile], the IC50 amounted to 570 nM.
Then `Cc1ncn(-c2ccc(CN3CC(=O)N[C@H](c4ccc5c(c4C)COC5=O)C3)cn2)n1` [Example 75-I, (R)-6-(4-methyl-1-oxo-1,3-dihydroisobenzo-furan-5-yl)-4-((6-(3-methyl-1H-1,2,4-triazol-1-yl)pyridin-3-yl)methyl) piperazin-2-one], with 680 nM; and `Cc1cn(-c2ccc(CN3CC(=O)N[C@H](c4ccc5c(c4C)COC5=O)C3)cn2)cn1` [Example 76-I, (R)-6-(4-methyl-1-oxo-1,3-dihydroisobenzo-furan-5-yl)-4-((6-(4-methyl-1H-imidazol-1-yl)pyridin-3-yl)methyl) piperazin-2-one], with 300 nM.
As for `Cc1cc(-n2cc(CN3CC(=O)N(C)[C@H](c4ccc5c(c4C)COC5=O)C3)cn2)ncc1C#N` [Example 77-I, (R)-4-methyl-6-(4-((4-methyl-3-(4-methyl-1-oxo-1,3-dihydroisobenzo-furan-5-yl)-5-oxo-piperazin-1-yl)methyl)-1H-pyrazol-1-yl)nicotino-nitrile], the IC50 came out at 820 nM.
Take `COc1cc(-n2cnc(CN3C[C@@H](c4ccc5c(c4C)COC5=O)OC3=O)c2)ncc1C#N` [Example 78-I, (R)-4-methoxy-6-(4-((5-(4-methyl-1-oxo-1,3-dihydroisobenzofuran-5-yl)-2-oxooxazolidin-3-yl)methyl)-1H-imidazol-1-yl)nicotinonitrile]: the IC50 was found to be 810 nM.
For the compound `COc1c(CN2C[C@@H](c3ccc4c(c3C)COC4=O)OC2=O)cnn1-c1cc(C)c(C#N)cn1` [Example 79-I, (R)-6-(5-methoxy-4-((5-(4-methyl-1-oxo-1,3-dihydroisobenzofuran-5-yl)-2-oxooxazolidin-3-yl)methyl)-1H-pyrazol-1-yl)-4-methyl-nicotinonitrile], the IC50 came to 320 nM.
Turning to `Cc1c([C@@H]2CN(Cc3cnn(-c4ccc5oc(=O)n(C)c5c4)c3)C(=O)O2)ccc2c1COC2=O` [Example 80-I, (R)-3-methyl-5-(4-((5-(4-methyl-1-oxo-1,3-dihydroisobenzofuran-5-yl)-2-oxooxazolidin-3-yl)methyl)-1H-pyrazol-1-yl)benzo[d]oxazol-2(3H)-one], the IC50 is 490 nM.
Regarding `Cc1cc(-c2ncc(CN3C[C@@H](c4ccc5c(c4C)COC5=O)N[C@@H](C)C3)s2)ncc1C#N` [Example 113-I, 4,4-methyl-6-(5-(((3S,5R)-3-methyl-5-(4-methyl-1-oxo-1,3-dihydroisobenzofuran-5-yl)piperazin-1-yl)methyl)thiazol-2-yl)nicotinonitrile], the half-inhibitory concentration (IC50) was 25 nM.
For the compound `Cc1cc(-n2cc(CN3C[C@@H](c4ccc5c(c4C)COC5=O)N[C@@H](C)C3)oc2=O)ncc1C#N` [Example 117-I, 4-methyl-6-(5-(((3S,5R)-3-methyl-5-(4-methyl-1-oxo-1,3-dihydroisobenzofuran-5-yl)piperazin-1-yl)methyl)-2-oxooxazol-3(2H)-yl)nicotinonitrile], the IC50 worked out at 34 nM.
Then `Cc1cc(-n2cc(CN3C[C@@H](c4ccc5c(c4C)COC5=O)NC3=O)cn2)ncc1C#N` [Example 118-I, (R)-4-methyl-6-(4-((4-(4-methyl-1-oxo-1,3-dihydroisobenzofuran-5-yl)-2-oxoimidazolidin-1-yl)methyl)-1H-pyrazol-1-yl)nicotinonitrile], with 290 nM; and `Cc1cc(-n2cc(CN3C[C@@H](c4ccc5c(c4C)COC5=O)NS3(=O)=O)cn2)ncc1C#N` [Example 119-I, (R)-4-methyl-6-(4-((4-(4-methyl-1-oxo-1,3-dihydroisobenzofuran-5-yl)-1,1-dioxido-1,2,5-thiadiazolidin-2-yl)methyl)-1H-pyrazol-1-yl)nicotinonitrile], with 140 nM.
Consider `Cc1c([C@@H]2CN(Cc3ccc(-c4ccc(=O)n(C)n4)nc3)C[C@H](C)N2)ccc2c1COC2=O` [Example 120-I, 2-methyl-6-(5-(((3S,5R)-3-methyl-5-(4-methyl-1-oxo-1,3-dihydroisobenzofuran-5-yl)piperazin-1-yl)methyl)pyridin-2-yl)pyridazin-3(2H)-one], for which the half-maximal inhibitory concentration (IC50) came out at 160 nM.
